From patent publication US7262212B2, “2,3-dihydro-6-nitroimidazo[2,1-b]oxazoles” (Otsuka Pharmaceutical Co., Ltd., priority 2002, dated 2007) come the findings set out here.

One may read the melting point as the temperature of the solid-liquid transition.

`CC(C)(C)OC(=O)CNC(=O)OCC1(C)Cn2cc([N+](=O)[O-])nc2O1` (stereo not drawn) came in with a melting point of 104 to 106 °C.

With `C[C@]1(CN2CCC(NCc3ccc(C(F)(F)F)cc3)CC2)Cn2cc([N+](=O)[O-])nc2O1`, the melting point lay in the range of 148.6 to 152.9 °C.

`CC1(Cn2nc(C=Cc3ccc(Cl)cc3)oc2=O)Cn2cc([N+](=O)[O-])nc2O1` (stereo not drawn) gave a melting point of 249 to 252 °C.

Consider `C[C@]1(CN2CCC(N3CCN(c4ccc(Cl)cc4)CC3)CC2)Cn2cc([N+](=O)[O-])nc2O1`, for which the melting point is 226 to 228 °C.

In turn, `C[C@]1(CN2CCN(C(=O)N3C=CC(c4ccc(Cl)cc4)=CC3)CC2)Cn2cc([N+](=O)[O-])nc2O1` came in with a melting point of 156 to 159 °C.

Regarding `O=[N+]([O-])c1cn2c(n1)O[C@@H](CN1CCN(Cc3ccc(-c4ccccc4)cc3)CC1)C2`, the melting point lay within 207 to 208 °C.

`CC1(CN2CCN(c3nc4ccccc4o3)CC2)Cn2cc([N+](=O)[O-])nc2O1` (stereo not drawn) gave a melting point of 228 to 229.5 °C.

In the case of `C[C@]1(COC(=O)N2CCc3cc(Cl)ccc32)Cn2cc([N+](=O)[O-])nc2O1`, the melting point is 189 to 191 °C.

On to `CN1CCC2(CC1)Cn1cc([N+](=O)[O-])nc1O2`, for which the melting point is 237 to 239 °C (dec.).

`C[C@]1(CN2CCC(Cc3ccc(OC(F)(F)F)cc3)CC2)Cn2cc([N+](=O)[O-])nc2O1` showed a melting point of 111 to 112.5 °C.

Take `CC1(CO)Cn2cc([N+](=O)[O-])nc2O1` (stereo not drawn): the melting point was in the range of 166 to 168 °C.

Regarding `CSc1ccc(COC(=O)N2CCN(CC3(C)Cn4cc([N+](=O)[O-])nc4O3)CC2)cc1` (stereo not drawn), the melting point was in the range of 118 to 120 °C.

Turning to `CCn1c(=O)n(CC2(C)Cn3cc([N+](=O)[O-])nc3O2)c2cc(Cl)ccc21` (stereo not drawn), the melting point fell in the range of 240.9 to 245.6 °C.

`C[C@]1(CN2CCN(C(=O)NC3CCCCC3)CC2)Cn2cc([N+](=O)[O-])nc2O1`: the melting point lay in the range of 98 to 101 °C.

On to `CN(CCN1CCN(c2ccc(C(F)(F)F)cc2)CC1)C[C@@]1(C)Cn2cc([N+](=O)[O-])nc2O1`, for which the melting point lay in the range of 148 to 150.5 °C.

Regarding `C[C@]1(CN2CCC(OCCCc3ccc(Cl)cc3)CC2)Cn2cc([N+](=O)[O-])nc2O1`, the melting point lay within 88.8 to 91.9 °C.

Compound `CN(CCOc1ccc(C(F)(F)F)cc1)C[C@@]1(C)Cn2cc([N+](=O)[O-])nc2O1` gave a melting point of 123 to 126 °C.

Compound `O=C(Nc1ccc(OC(F)(F)F)cc1)N1CCC2(CC1)Cn1cc([N+](=O)[O-])nc1O2` displayed a melting point of 231 to 233 °C.

With `C[C@]1(COc2ccc(N3CCN(Cc4ccc(OC(F)(F)F)cc4)CC3)cc2)Cn2cc([N+](=O)[O-])nc2O1`, the melting point lay within 213.5 to 217 °C.

In turn, `CC(C)OC(=O)N1CCN(CC2(C)Cn3cc([N+](=O)[O-])nc3O2)CC1` (stereo not drawn) displayed a melting point of 158.3 to 159.8 °C.

As to `Cc1ccc(NC(=O)N2CCN(CC3(C)Cn4cc([N+](=O)[O-])nc4O3)CC2)cc1` (stereo not drawn), the melting point was 202 to 203 °C (dec.).

In turn, `CC1(CN2CCN(C(=O)Cc3ccccc3)CC2)Cn2cc([N+](=O)[O-])nc2O1` (stereo not drawn) gave a melting point of 175.2 to 175.9 °C.

`C[C@]1(CN2CCN(Cc3ccc(C(F)(F)F)cc3)CC2)Cn2cc([N+](=O)[O-])nc2O1` registered a melting point of 110 to 112 °C.

Compound `C[C@]1(CN2CCN(S(=O)(=O)CCCc3ccc(Cl)cc3)CC2)Cn2cc([N+](=O)[O-])nc2O1` gave a melting point of 150 to 151 °C.

In turn, `Cn1c(=O)n(CC2(C)Cn3cc([N+](=O)[O-])nc3O2)c2ccccc21` (stereo not drawn) gave a melting point of 203.2 to 204.4 °C.

`CC1(Cn2c(=O)oc3ccc(Cl)cc32)Cn2cc([N+](=O)[O-])nc2O1` (stereo not drawn) came in with a melting point of 207.6 to 207.9 °C.

`C[C@]1(CN2CCC(N3CCN(Cc4ccc(Cl)cc4)CC3)CC2)Cn2cc([N+](=O)[O-])nc2O1` returned a melting point of 148 to 149 °C.

`CN1C(=O)CCc2cc(COC(=O)N3CCN(C[C@@]4(C)Cn5cc([N+](=O)[O-])nc5O4)CC3)ccc21` had a melting point of 189 to 190 °C.

Take `CN(C[C@@]1(C)Cn2cc([N+](=O)[O-])nc2O1)c1ccccc1`: the melting point is 147 to 148 °C.

Compound `CCOC(=O)N1CCN(c2ccc(OC[C@@]3(C)Cn4cc([N+](=O)[O-])nc4O3)cc2)CC1` registered a melting point of 210.5 to 212 °C.

The compound `CCCCCCn1c(=O)n(CC2(C)Cn3cc([N+](=O)[O-])nc3O2)c2cc(Cl)ccc21` (stereo not drawn) came in with a melting point of 168.1 to 169.3 °C.

On to `CC1(Cn2nc(-c3ccc(Cl)cc3)oc2=O)Cn2cc([N+](=O)[O-])nc2O1` (stereo not drawn), for which the melting point was 221 to 222 °C.

On to `C[C@]1(COc2nc3ccccc3o2)Cn2cc([N+](=O)[O-])nc2O1`, for which the melting point was 232 to 233 °C.

Take `C[C@]1(CN2CCN(c3cccnc3)CC2)Cn2cc([N+](=O)[O-])nc2O1`: the melting point was in the range of 145 to 147.7 °C.

Consider `O=C(Nc1ccc(Cl)cc1)N1CCC2(CC1)Cn1cc([N+](=O)[O-])nc1O2`, for which the melting point is 249 to 252 °C (dec.).

With `C[C@]1(CN2CCC(Nc3ccc(OC(F)(F)F)cc3)CC2)Cn2cc([N+](=O)[O-])nc2O1`, the melting point fell in the range of 107.5 to 109 °C.

`CC(C)(C)OC(=O)N1CCN(C2CCN(C[C@@]3(C)Cn4cc([N+](=O)[O-])nc4O3)CC2)CC1` gave a melting point of 184 to 185 °C.

For the compound `O=C(CN1CCN(c2nc3ccccc3o2)CC1)N1CCC2(CC1)Cn1cc([N+](=O)[O-])nc1O2`, the melting point is 260 to 263 °C (dec.).

For `CC1(CN2CCN(C(=O)Nc3ccc(Cl)c(C(F)(F)F)c3)CC2)Cn2cc([N+](=O)[O-])nc2O1` (stereo not drawn), the melting point is 222 to 224 °C.

In turn, `CC1(CN2CCN(C(=O)Cc3ccc(Cl)c(Cl)c3)CC2)Cn2cc([N+](=O)[O-])nc2O1` (stereo not drawn) displayed a melting point of 189 to 191 °C.

As for `O=[N+]([O-])c1cn2c(n1)O[C@@H](CN1CCN(c3ccc(C(F)(F)F)cc3)CC1)C2`, the melting point lay within 175.8 to 176.6 °C.

As to `CC1(Cn2ccnc2)Cn2cc([N+](=O)[O-])nc2O1` (stereo not drawn), the melting point lay within 245.5 to 247.8 °C.

As for `CN(CCN1CCN(C(=O)OC(C)(C)C)CC1)C[C@@]1(C)Cn2cc([N+](=O)[O-])nc2O1`, the melting point lay within 149.5 to 151.8 °C.

In turn, `C[C@]1(COc2ccc(OC(F)(F)F)cc2)Cn2cc([N+](=O)[O-])nc2O1` showed a melting point of 176.5 to 178 °C.

Compound `CC1(CN2CCN(C(C)(C)C)C(=O)C2)Cn2cc([N+](=O)[O-])nc2O1` (stereo not drawn) had a melting point of 193 to 194 °C.

The compound `CC(C)(C)OC(=O)N1CCN(CCCC2(C)Cn3cc([N+](=O)[O-])nc3O2)CC1` (stereo not drawn) yielded a melting point of 166 to 167 °C.

The compound `CC1(COC(=O)Nc2cccc(F)c2)Cn2cc([N+](=O)[O-])nc2O1` (stereo not drawn) showed a melting point of 168 to 169 °C.

Regarding `C[C@]1(CN2CCN(c3cc(-c4ccccc4)nc(-c4ccccc4)n3)CC2)Cn2cc([N+](=O)[O-])nc2O1`, the melting point fell in the range of 202.5 to 205.4 °C.

The compound `C[C@]1(COc2ccc(C3CCN(C(=O)OCc4ccc(OC(F)(F)F)cc4)CC3)cc2)Cn2cc([N+](=O)[O-])nc2O1` came in with a melting point of 202.5 to 204 °C.

As to `CN(CCCOc1ccc(OC(F)(F)F)cc1)C[C@@]1(C)Cn2cc([N+](=O)[O-])nc2O1`, the melting point lay in the range of 92 to 95 °C.

The compound `CC1(CN2CCN(C(=O)Cc3ccc(Cl)cc3)CC2)Cn2cc([N+](=O)[O-])nc2O1` (stereo not drawn) yielded a melting point of 184 to 187 °C.

As to `CC1(Cn2c(=O)n(C3CCN(C(=O)OCc4ccccc4)CC3)c3ccccc32)Cn2cc([N+](=O)[O-])nc2O1` (stereo not drawn), the melting point lay within 181.7 to 184.6 °C.

As for `CN(Cc1cccc(Cl)c1)C[C@@]1(C)Cn2cc([N+](=O)[O-])nc2O1`, the melting point was 177.5 to 178.5 °C.

`C[C@]1(COc2ccc(N3CCN(Cc4ccc(C(F)(F)F)cc4)CC3)cc2)Cn2cc([N+](=O)[O-])nc2O1` had a melting point of 205.5 to 207 °C.

For `CCOC(=O)NCC1(C)Cn2cc([N+](=O)[O-])nc2O1` (stereo not drawn), the melting point was in the range of 182.5 to 183.4 °C.

Take `CC(=O)c1ccc(COC(=O)N2CCN(CC3(C)Cn4cc([N+](=O)[O-])nc4O3)CC2)cc1` (stereo not drawn): the melting point was in the range of 101 to 102 °C.

Turning to `CN(CCOc1ccc(OC(F)(F)F)cc1)C[C@@]1(C)Cn2cc([N+](=O)[O-])nc2O1`, the melting point fell in the range of 112.5 to 115 °C.

The compound `C[C@]1(CN2CCN(C3CCN(CC=Cc4ccc(OC(F)(F)F)cc4)CC3)CC2)Cn2cc([N+](=O)[O-])nc2O1` had a melting point of 157 to 158 °C.

`CC1(CN2CCN(C(=O)NCc3ccc(C(F)(F)F)cc3)CC2)Cn2cc([N+](=O)[O-])nc2O1` (stereo not drawn) gave a melting point of 201 to 202.5 °C.

Compound `CN(CC1(C)Cn2cc([N+](=O)[O-])nc2O1)C(=O)OCc1ccc(F)cc1` (stereo not drawn) displayed a melting point of 168.9 to 169.9 °C.

As for `CC1(CCN2CCN(C(C)(C)C)C(=O)C2)Cn2cc([N+](=O)[O-])nc2O1` (stereo not drawn), the melting point lay within 153 to 154 °C.

As to `O=c1oc(-c2ccc(OC(F)(F)F)cc2)nn1CC1Cn2cc([N+](=O)[O-])nc2O1` (stereo not drawn), the melting point lay within 204 to 207 °C.

Regarding `CNC(C1CCN(C(=O)OCc2ccc(Cl)cc2)CC1)[C@]1(C)Cn2cc([N+](=O)[O-])nc2O1` (stereo partly drawn), the melting point lay in the range of 116.2 to 116.6 °C.

In turn, `CC(C)(C)OC(=O)N1CCC(N2CCN(C[C@@]3(C)Cn4cc([N+](=O)[O-])nc4O3)CC2)CC1` registered a melting point of 181 to 182 °C.

As for `O=C(NCc1ccc(C(F)(F)F)cc1)N1CCC2(CC1)Cn1cc([N+](=O)[O-])nc1O2`, the melting point lay within 215 to 217 °C.

`CN(C)c1ccc2c(c1)n(CC1(C)Cn3cc([N+](=O)[O-])nc3O1)c(=O)n2C` (stereo not drawn): the melting point is 264.6 to 268.3 °C (dec.).

Regarding `Cn1c(=O)n(CC2(C)Cn3cc([N+](=O)[O-])nc3O2)c2cc(F)ccc21` (stereo not drawn), the melting point is 244.2 to 249.8 °C (dec.).

The compound `C[C@]1(COC(=O)N2CCc3cc(Cl)ccc3C2)Cn2cc([N+](=O)[O-])nc2O1` gave a melting point of 180 to 182 °C.

Regarding `C[C@]1(COc2ccc(N3CCN(C(=O)OCc4ccc(Cl)cc4)CC3)cc2)Cn2cc([N+](=O)[O-])nc2O1`, the melting point is 184.5 to 187.5 °C.

Regarding `C[C@]1(CN2CC=C(c3ccccc3)CC2)Cn2cc([N+](=O)[O-])nc2O1`, the melting point was in the range of 200.1 to 201 °C.

In turn, `CC1(COc2ccc(N3CCN(c4ccc(C(F)(F)F)cc4)CC3)cc2)Cn2cc([N+](=O)[O-])nc2O1` (stereo not drawn) gave a melting point of 230.7 to 233.1 °C.

The compound `CC1(CN2CCN(S(=O)(=O)c3ccc(Cl)cc3)CC2)Cn2cc([N+](=O)[O-])nc2O1` (stereo not drawn) gave a melting point of 202 to 204 °C.
